ChEMBL document CHEMBL1287680, “C-11 diamino cryptolepine derivatives NSC748392, NSC748393, and NSC748394: anticancer profile and G-quadruplex stabilization” (Bioorg Med Chem Lett, 2010)
pIC50: −log10 of the molar value.

Experiments:
[1] = test system: HL-60(TB); assay: cells; settings: Homo sapiens
Description: Anticancer activity against human HL-60(TB) cells

[2] = test system: SN12C; assay: cells; settings: Homo sapiens
Description: Anticancer activity against human SN12C cells

[3] = test system: CAKI-1; assay: cells; settings: Homo sapiens
Description: Anticancer activity against human Caki1 cells

[4] = test system: OVCAR-3; assay: cells; settings: Homo sapiens
Description: Anticancer activity against human OVCAR-3 cells

[5] = test system: SK-MEL-28; assay: cells; settings: Homo sapiens
Description: Anticancer activity against human SK-MEL-28 cells

[6] = test system: Vero; assay: cells; settings: Chlorocebus sabaeus, 48 h
Description: Cytotoxicity against african green monkey Vero cells after 48 hrs by MTT assay

[7] = test system: UACC-257; assay: cells; settings: Homo sapiens
Description: Anticancer activity against human UACC257 cells

[8] = test system: SNB-75; assay: cells; settings: Homo sapiens
Description: Anticancer activity against human SNB75 cells

[9] = cells; settings: Homo sapiens, Hs-578T
Description: Anticancer activity against human Hs 578T cells

[10] = test system: U-251; assay: cells; settings: Homo sapiens
Description: Anticancer activity against human U251 cells

[11] = test system: NCI-H460; assay: cells; settings: Homo sapiens
Description: Anticancer activity against human NCI-H460 cells

[12] = test system: NCI-H23; assay: cells; settings: Homo sapiens
Description: Anticancer activity against human NCI-H23 cells

[13] = test system: EKVX; assay: cells; settings: Homo sapiens
Description: Anticancer activity against human EKVX cells

[14] = test system: KM12; assay: cells; settings: Homo sapiens
Description: Anticancer activity against human KM12 cells

[15] = test system: MDA-MB-435; assay: cells; settings: Homo sapiens
Description: Anticancer activity against human MDA-MB-435 cells

[16] = test system: HCT-116; assay: cells; settings: Homo sapiens
Description: Anticancer activity against human HCT116 cells

[17] = test system: UO-31; assay: cells; settings: Homo sapiens
Description: Anticancer activity against human UO31 cells

[18] = test system: 786-0; assay: cells; settings: Homo sapiens
Description: Anticancer activity against human 786-0 cells

[19] = test system: PC-3; assay: cells; settings: Homo sapiens
Description: Anticancer activity against human PC3 cells

[20] = test system: Nucleic Acid; settings: Homo sapiens
Description: Binding affinity to human duplex DNA assessed as change in melting temperature by FRET-melting assay

[21] = test system: M14; assay: cells; settings: Homo sapiens
Description: Anticancer activity against human M14 cells

[22] = test system: OVCAR-5; assay: cells; settings: Homo sapiens
Description: Anticancer activity against human OVCAR5 cells

[23] = test system: A498; assay: cells; settings: Homo sapiens
Description: Anticancer activity against human A498 cells

[24] = test system: MOLT-4; assay: cells; settings: Homo sapiens
Description: Anticancer activity against human MOLT4 cells

[25] = test system: HCT-15; assay: cells; settings: Homo sapiens
Description: Anticancer activity against human HCT15 cells

[26] = test system: NCI/ADR-RES; assay: cells; settings: Homo sapiens
Description: Anticancer activity against human NCI/ADR-RES cells

[27] = test system: NCI-H322M; assay: cells; settings: Homo sapiens
Description: Anticancer activity against human NCI-H322M cells

[28] = test system: NCI-H522; assay: cells; settings: Homo sapiens
Description: Anticancer activity against human NCI-H522 cells

[29] = test system: Nucleic Acid; settings: Homo sapiens; remark: listed apart in the source
Description: Binding affinity to human G-quadruplex DNA assessed as change in melting temperature by FRET-melting assay

[30] = test system: CCRF-CEM; assay: cells; settings: Homo sapiens
Description: Anticancer activity against human CCRF-CEM cells

[31] = test system: MCF7; assay: cells; settings: Homo sapiens
Description: Anticancer activity against human MCF7 cells

With `CCN(CC)CCCCNc1c2ccccc2[n+](C)c2c1[nH]c1ccccc12.[Cl-]` the GI50 ([1]; HL-60, read-out: pGI50 (converted)) was 20.4 µM, the CC50 ([1]; HL-60, read-out: pLC50 (converted)) was greater than 100 µM and the TGI ([1]; HL-60, read-out: pTGI) was greater than 100 µM. The GI50 ([2]; read-out: pGI50 (converted)) was 0.0525 µM, the CC50 ([2]; read-out: pLC50 (converted)) was greater than 72.4 µM and the TGI ([2]; read-out: pTGI) was 3.24 µM. The GI50 ([3]; CAKI-1, read-out: pGI50 (converted)) was 6.92 µM, the CC50 ([3]; CAKI-1, read-out: pLC50 (converted)) was 100 µM and the TGI ([3]; CAKI-1, read-out: pTGI) was 32.4 µM. It also gave a GI50 ([4]; OVCAR-3, read-out: pGI50 (converted)) of 0.427 µM, a CC50 ([4]; OVCAR-3, read-out: pLC50 (converted)) greater than 100 µM and a TGI ([4]; OVCAR-3, read-out: pTGI) of 2.45 µM. For the same compound, the GI50 ([5]; SK-MEL-28, read-out: pGI50 (converted)) was 0.186 µM, the CC50 ([5]; SK-MEL-28, read-out: pLC50 (converted)) was 1.74 µM and the TGI ([5]; SK-MEL-28, read-out: pTGI) was 0.49 µM. The pIC50 [6] was 4.21, the GI50 ([7]; UACC-257, read-out: pGI50 (converted)) was 1.55 µM and the CC50 ([7]; UACC-257, read-out: pLC50 (converted)) was greater than 100 µM. For the same compound, the TGI ([7]; UACC-257, read-out: pTGI) was 5.75 µM, the GI50 ([8]; SNB-75, read-out: pGI50 (converted)) was 0.347 µM and the CC50 ([8]; SNB-75, read-out: pLC50 (converted)) was 3.8 µM. For the same compound, the TGI ([8]; SNB-75, read-out: pTGI) was 1.29 µM, the GI50 ([9]; read-out: pGI50 (converted)) was 0.269 µM and the CC50 ([9]; read-out: pLC50 (converted)) was 93.3 µM. The TGI ([9]; read-out: pTGI) was 0.955 µM, the GI50 ([10]; U-251, read-out: pGI50 (converted)) was 0.229 µM and the CC50 ([10]; U-251, read-out: pLC50 (converted)) was 24.5 µM. The TGI ([10]; U-251, read-out: pTGI) was 1.35 µM, the GI50 ([11]; NCI-H460, read-out: pGI50 (converted)) was 0.0912 µM and the CC50 ([11]; NCI-H460, read-out: pLC50 (converted)) was 52.5 µM. It also gave a TGI ([11]; NCI-H460, read-out: pTGI) of 1.29 µM, a GI50 ([12]; NCI-H23, read-out: pGI50 (converted)) of 0.191 µM and a CC50 ([12]; NCI-H23, read-out: pLC50 (converted)) of 3.47 µM. It also gave a TGI ([12]; NCI-H23, read-out: pTGI) of 0.724 µM, a GI50 ([13]; read-out: pGI50 (converted)) of 0.269 µM and a CC50 ([13]; read-out: pLC50 (converted)) greater than 100 µM. For the same compound, the TGI ([13]; read-out: pTGI) was 3.63 µM, the GI50 ([14]; KM12, read-out: pGI50 (converted)) was 0.372 µM and the CC50 ([14]; KM12, read-out: pLC50 (converted)) was 70.8 µM. For the same compound, the TGI ([14]; KM12, read-out: pTGI) was 4.47 µM, the GI50 ([15]; MDA-MB-435, read-out: pGI50 (converted)) was 0.631 µM and the CC50 ([15]; MDA-MB-435, read-out: pLC50 (converted)) was 5.62 µM. It also gave a TGI ([15]; MDA-MB-435, read-out: pTGI) of 2.09 µM, a GI50 ([16]; HCT-116, read-out: pGI50 (converted)) of 0.331 µM and a CC50 ([16]; HCT-116, read-out: pLC50 (converted)) greater than 100 µM. It also gave a TGI ([16]; HCT-116, read-out: pTGI) of 3.8 µM, a GI50 ([17]; UO-31, read-out: pGI50 (converted)) of 2.4 µM and a CC50 ([17]; UO-31, read-out: pLC50 (converted)) greater than 100 µM. For the same compound, the TGI ([17]; UO-31, read-out: pTGI) was 25.7 µM, the GI50 ([18]; 786-0, read-out: pGI50 (converted)) was 1.91 µM and the CC50 ([18]; 786-0, read-out: pLC50 (converted)) was 97.7 µM. For the same compound, the TGI ([18]; 786-0, read-out: pTGI) was 6.76 µM, the GI50 ([19]; PC-3, read-out: pGI50 (converted)) was 0.324 µM and the CC50 ([19]; PC-3, read-out: pLC50 (converted)) was 100 µM. For the same compound, the TGI ([19]; PC-3, read-out: pTGI) was 2.24 µM, the ΔTm [20] was 13.1 °C and the GI50 ([21]; M14, read-out: pGI50 (converted)) was 1.35 µM. It also gave a CC50 ([21]; M14, read-out: pLC50 (converted)) of 7.41 µM, a TGI ([21]; M14, read-out: pTGI) of 3.16 µM and a GI50 ([22]; OVCAR-5, read-out: pGI50 (converted)) of 0.851 µM. The CC50 ([22]; OVCAR-5, read-out: pLC50 (converted)) was greater than 100 µM, the TGI ([22]; OVCAR-5, read-out: pTGI) was 4.17 µM and the GI50 ([23]; A498, read-out: pGI50 (converted)) was 0.468 µM. It also gave a CC50 ([23]; A498, read-out: pLC50 (converted)) of less than 7.59 µM, a TGI ([23]; A498, read-out: pTGI) of 2.04 µM and a GI50 ([24]; MOLT-4, read-out: pGI50 (converted)) of 0.339 µM. It also gave a CC50 ([24]; MOLT-4, read-out: pLC50 (converted)) greater than 100 µM, a TGI ([24]; MOLT-4, read-out: pTGI) of 42.7 µM and a GI50 ([25]; HCT-15, read-out: pGI50 (converted)) of 11.5 µM. For the same compound, the CC50 ([25]; HCT-15, read-out: pLC50 (converted)) was greater than 100 µM, the TGI ([25]; HCT-15, read-out: pTGI) was 49 µM and the GI50 ([26]; read-out: pGI50 (converted)) was 69.2 µM. It also gave a CC50 ([26]; read-out: pLC50 (converted)) greater than 100 µM, a TGI ([26]; read-out: pTGI) greater than 100 µM and a GI50 ([27]; read-out: pGI50 (converted)) of 0.275 µM. It also gave a CC50 ([27]; read-out: pLC50 (converted)) greater than 100 µM, a TGI ([27]; read-out: pTGI) of 2.75 µM and a GI50 ([28]; NCI-H522, read-out: pGI50 (converted)) of 0.148 µM. For the same compound, the CC50 ([28]; NCI-H522, read-out: pLC50 (converted)) was 1.82 µM, the TGI ([28]; NCI-H522, read-out: pTGI) was 0.457 µM and the ΔTm [29] was 20.9 °C. It also gave a GI50 ([30]; read-out: pGI50 (converted)) of 0.427 µM, a CC50 ([30]; read-out: pLC50 (converted)) greater than 100 µM and a TGI ([30]; read-out: pTGI) of 2.57 µM. For the same compound, the GI50 ([31]; MCF7, read-out: pGI50 (converted)) was 0.224 µM, the CC50 ([31]; MCF7, read-out: pLC50 (converted)) was greater than 36.3 µM and the TGI ([31]; MCF7, read-out: pTGI) was 0.794 µM.
